Test results taken from paper PMC3889317 (Diabetes Therapy, 2013).

Assay: Plasma pharmacokinetics
Settings: during 5 days of dosing

In the case of `N#C[C@@H]1C[C@@H]2C[C@@H]2N1C(=O)[C@@H](N)C12CC3CC(O)(CC(O)(C3)C1)C2` [5-OH-Saxagliptin, 5-hydroxy-saxagliptin], the “Plasma concentrations appeared to reach steady state by” value is reported as “Day 5”.
